Experiments:
[1] = tested on: SKBR3 (PIK3CA WT) cells, pSer473 AKT; assay: pS473 AKT assay in SKBR3 cells; format: cell-based; conditions: Homo sapiens, SK-BR-3, treated 2 h, read-out: SKBR3_IC50
Method: (§1) SKBR3 (PIK3CA WT), MCF7 (PIK3CA E545K), and T47D (PIK3CA H1047R) cells were cultured using 10-cm petri dishes with recommended medium. One day before the assay, cells were seeded in 96-well plates. After overnight incubation, cells were treated with different concentrations of PI3Kα inhibitors for 2 h. Cells were then fixed using 4% paraformaldehyde at room temperature for 20 min. Cells were aspirated with 4% paraformaldehyde, and washed using 1× regular phosphate buffered saline 3 times, 5 min each. Any residual phosphate buffered saline was aspirated and cells were blocked using 10% goat serum containing 1% bovine serum albumin and 0.3% Triton X-100 at room temperature for 1 h. Without any additional washing, primary antibodies (rabbit anti-pSer473 AKT) were diluted using blocking buffer and added at a final volume of 50 microliter per well. Assay plates with primary antibodies were maintained overnight at 4° C. Cells were washed using 1× regular phosphate buffered saline 3 times, 5 min each. After the final wash, cells were incubated with horseradish peroxidase-conjugated secondary antibodies (goat Anti-rabbit IgG) and diluted using the same blocking buffer at room temperature for 1 h. Cells were then washed thoroughly using 1× regular phosphate buffered saline 3 times, 5 min each, and any residual phosphate buffered saline was aspirated. Super-Signal ELISA Pico Chemiluminescent Substrate was then added at a final volume of 100 microliter per well. Plates were read on a i3x Multi-Mode Microplate Reader and IC50 values calculated using GraphPad Prism software.
(§2) Results of the assay described above are presented in Table A. “++++” indicates an IC50 less than 1000 nM; “+++” indicates an IC50 greater than or equal to 1000 nM but less than 5000 nM; “++” indicates an IC50 greater than or equal to 5000 nM but less than 10000 nM; and “+” indicates an IC50 greater than or equal to 10000 nM.

[2] = tested on: T47D (PIK3CA H1047R) cells, pSer473 AKT; assay: pS473 AKT assay in T47D cells; format: cell-based; conditions: Homo sapiens, treated 2 h, read-out: T47D_IC50
Method: as §1, §2

| SMILES | IC50 [1] [nM] | IC50 [2] [nM] |
| --- | --- | --- |
| Cn1ccc(C#Cc2cc(NC(=O)c3cc(F)cc(C(F)(F)F)c3)c(Oc3cc(F)ccc3Cl)c3c(N)nn(C)c23)n1 [Example 48, N-(3-Amino-4-(2-chloro-5-fluorophenoxy)-1-methyl-7-((1-methyl-1H-pyrazol-3-yl)ethynyl)-1H-indazol-5-yl)-3-fluoro-5-(trifluoromethyl)benzamide] | 1000 to 5000 | < 1000 |
| Cn1nc(N)c2c(Oc3cc(F)ccc3Cl)c(NC(=O)N3CCc4ccccc43)cc(Cl)c21 [Example 64, N-(3-Amino-7-chloro-4-(2-chloro-5-fluorophenoxy)-1-methyl-1H-indazol-5-yl)indoline-1-carboxamide] | 1000 to 5000 | < 1000 |
| Nc1nn2c3c(cc(NC(=O)c4cc(F)cc(C(F)(F)F)c4)c(Oc4cc(F)ccc4Cl)c13)CNC2=O [Example 68, N-(2-Amino-3-(2-chloro-5-fluorophenoxy)-8-oxo-7,8-dihydro-6H-pyrazolo[4,5,1-ij]quinazolin-4-yl)-3-fluoro-5-(trifluoromethyl)benzamide] | < 1000 | < 1000 |
| Cn1nc(N)c2c(Oc3cc(F)ccc3Cl)c(NC(=O)c3cc(F)cc(C(F)(F)F)c3)cc(CCO)c21 [Example 66, N-(3-Amino-4-(2-chloro-5-fluorophenoxy)-7-(2-hydroxyethyl)-1-methyl-1H-indazol-5-yl)-3-fluoro-5-(trifluoromethyl)benzamide] | < 1000 | < 1000 |
| CN1Cc2cc(NC(=O)c3cc(F)cc(C(F)(F)F)c3)c(Oc3cc(F)ccc3Cl)c3c(N)nn(c23)C1=O [Example 69, N-(2-Amino-3-(2-chloro-5-fluorophenoxy)-7-methyl-8-oxo-7,8-dihydro-6H-pyrazolo[4,5,1-ij]quinazolin-4-yl)-3-fluoro-5-(trifluoromethyl)benzamide] | < 1000 | < 1000 |
| Nc1n[nH]c2ccc(NC(=O)c3csc4ccccc34)c(Oc3cc(F)ccc3Cl)c12 [Example 18, N-(3-Amino-4-(2-chloro-5-fluorophenoxy)-1H-indazol-5-yl)benzo[b]thiophene-3-carboxamide] | < 1000 | < 1000 |
| Cn1nc(N)c2c(Oc3cc(F)ccc3Cl)c(NC(=O)c3cc(F)cc(C(F)(F)F)c3)cc(C#CC(C)(C)O)c21 [Example 39, N-(3-Amino-4-(2-chloro-5-fluorophenoxy)-7-(3-hydroxy-3-methylbut-1-yn-1-yl)-1-methyl-1H-indazol-5-yl)-3-fluoro-5-(trifluoromethyl)benzamide] | 1000 to 5000 | < 1000 |
| Nc1n[nH]c2c(-c3ccccc3)cc(NC(=O)c3cc(F)cc(C(F)(F)F)c3)c(Oc3cc(F)ccc3Cl)c12 [Example 17, N-(3-Amino-4-(2-chloro-5-fluorophenoxy)-7-phenyl-1H-indazol-5-yl)-3-fluoro-5-(trifluoromethyl)benzamide] | 1000 to 5000 | < 1000 |
| Cn1nc(N)c2c(Oc3cc(F)ccc3Cl)c(NC(=O)c3cc(F)cc(C(F)(F)F)c3)ccc21 [Example 7, N-(3-amino-4-(2-chloro-5-fluorophenoxy)-1-methyl-1H-indazol-5-yl)-3-fluoro-5-(trifluoromethyl)benzamide] | < 1000 | < 1000 |
| CS(=O)(=O)n1nc(N)c2c(Oc3cc(F)ccc3Cl)c(NC(=O)c3cc(F)cc(C(F)(F)F)c3)cc(Br)c21 [Example 81, N-(3-Amino-7-bromo-4-(2-chloro-5-fluorophenoxy)-1-(methylsulfonyl)-1H-indazol-5-yl)-3-fluoro-5-(trifluoromethyl)benzamide] | 1000 to 5000 | < 1000 |
| Nc1nn2c3c(cc(NC(=O)c4cc(F)cc(C(F)(F)F)c4)c(Oc4cc(F)ccc4Cl)c13)CCC2 [Example 22, N-(2-amino-3-(2-chloro-5-fluorophenoxy)-7,8-dihydro-6H-pyrazolo[4,5,1-ij]quinolin-4-yl)-3-fluoro-5-(trifluoromethyl)benzamide] | < 1000 | < 1000 |
| Nc1nn2c(=O)c3c(c4cc(NC(=O)c5cc(F)cc(C(F)(F)F)c5)c(Oc5cc(F)ccc5Cl)c1c42)CCCC3 [Example 75, N-(4-Amino-3-(2-chloro-5-fluorophenoxy)-7-oxo-8,9,10,11-tetrahydro-7H-pyrazolo[4,5,1-de]phenanthridin-2-yl)-3-fluoro-5-(trifluoromethyl)benzamide] | < 1000 | < 1000 |
| Cn1cc(-c2cc(NC(=O)c3cc(F)cc(C(F)(F)F)c3)c(Oc3cc(F)ccc3Cl)c3c(N)n[nH]c23)cn1 [Example 14, N-(3-Amino-4-(2-chloro-5-fluorophenoxy)-7-(1-methyl-1H-pyrazol-4-yl)-1H-indazol-5-yl)-3-fluoro-5-(trifluoromethyl)benzamide] | 1000 to 5000 | < 1000 |
| Nc1nn2c3c(cc(NC(=O)c4cc(F)cc(C(F)(F)F)c4)c(Oc4cc(F)ccc4Cl)c13)CN(C1CC1)C2=O [Example 71, N-(2-Amino-3-(2-chloro-5-fluorophenoxy)-7-cyclopropyl-8-oxo-7,8-dihydro-6H-pyrazolo[4,5,1-ij]quinazolin-4-yl)-3-fluoro-5-(trifluoromethyl)benzamide] | < 1000 | < 1000 |
| CNc1nn(C)c2c(Cl)cc(NC(=O)c3cc(F)cc(C(F)(F)F)c3)c(Oc3cc(F)ccc3Cl)c12 [Example 53, N-(7-chloro-4-(2-chloro-5-fluorophenoxy)-1-methyl-3-(methylamino)-1H-indazol-5-yl)-3-fluoro-5-(trifluoromethyl)benzamide] | ≥ 10000 | < 1000 |
| Nc1n[nH]c2c(-c3cccnc3)cc(NC(=O)c3cc(F)cc(C(F)(F)F)c3)c(Oc3cc(F)ccc3Cl)c12 [Example 16, N-(3-Amino-4-(2-chloro-5-fluorophenoxy)-7-(pyridin-3-yl)-1H-indazol-5-yl)-3-fluoro-5-(trifluoromethyl)benzamide] | 1000 to 5000 | < 1000 |
| Nc1n[nH]c2ccc(NC(=O)c3cc(F)cc(C(F)(F)F)c3)c(COc3cc(F)ccc3Cl)c12 [Example 6, N-(3-amino-4-((2-chloro-5-fluorophenoxy)methyl)-1H-indazol-5-yl)-3-fluoro-5-(trifluoromethyl)benzamide] | ≥ 10000 | 1000 to 5000 |
| Nc1n[nH]c2c(Br)cc(NC(=O)c3cc(F)cc(C(F)(F)F)c3)c(Oc3cc(F)ccc3Cl)c12 [Example 11, N-(3-Amino-7-bromo-4-(2-chloro-5-fluorophenoxy)-1H-indazol-5-yl)-3-fluoro-5-(trifluoromethyl)benzamide] | < 1000 | < 1000 |
| Cn1nc(N)c2c(Oc3cc(F)ccc3Cl)c(NC(=O)c3cc(F)cc(C(F)(F)F)c3)cc(-c3ccc(C(N)=O)cc3)c21 [Example 27, N-(3-Amino-7-(4-carbamoylphenyl)-4-(2-chloro-5-fluorophenoxy)-1-methyl-1H-indazol-5-yl)-3-fluoro-5-(trifluoromethyl)benzamide] | 1000 to 5000 | < 1000 |
| Cn1cnc(C#Cc2cc(NC(=O)c3cc(F)cc(C(F)(F)F)c3)c(Oc3cc(F)ccc3Cl)c3c(N)nn(C)c23)c1 [Example 50, N-(3-Amino-4-(2-chloro-5-fluorophenoxy)-1-methyl-7-((1-methyl-1H-imidazol-4-yl)ethynyl)-1H-indazol-5-yl)-3-fluoro-5-(trifluoromethyl)benzamide] | 5000 to 10000 | < 1000 |
